Read-outs that look alike come from different tables or passages of the source.

One test addresses T1, F1F0-ATPase (Bos taurus, UniProt P13621).
T1 construct: from tissue; host or cells: bovine sub-mitochondrial particles (SMPs)
Kind of test: Inhibition of ATP synthesis and hydrolysis by the F1F0-ATPase. It counts as biochemical. As for the experimental part: (§1) The compounds listed in Table 4 were tested for activity against F1F0-ATPase and cytotoxicity in Ramos cells. Inhibition of ATP synthesis and hydrolysis by the F1F0-ATPase was measured as described in K. M. Johnson et al., Chemistry & Biology 2005, 12, 485-496. Cytotoxicity in Ramos cells was measured as described in K. M. Johnson et al., Chemistry & Biology 2005, 12, 485-496, or using the alamarBlue™ Assay with fluorescence detection (U.S. Pat. No. 5,501,959) as supplied and described by Invitrogen (Carlsbad, Calif.).

For the next test, the system named is Ramos cells. The experiment in a line: Cytotoxicity in Ramos cells. It counts as cell-based. As to conditions: Homo sapiens, read-out: Ramos Cell EC50. The procedure: as §1

Usually IC50 stands for the point on the concentration scale where inhibition reaches its midpoint. What is called EC50 is the concentration giving half of the maximal effect. Regarding `CC(C)NC(=O)Nc1ccc(C2=NC(Cc3ccccc3Br)C(=O)Nc3ccc(Cl)cc32)cc1` (stereo not drawn) [Compound 1, (Z)-1-(4-(3-(2-bromobenzyl)-7-chloro-2-oxo-2,3-dihydro-1H-benzo[e][1,4]diazepin-5-yl)phenyl)-3-isopropylurea], on F1F0-ATPase (read-out: ATPase IC50), the half-maximal inhibitory concentration (IC50) lay in the range of 5 to 10 µM. For the same compound, in the test with Ramos cells (cytotoxicity in Ramos cells), the EC50 was under 5 µM. Take `CC(C)NC(=O)Nc1ccc(C2=NC(Cc3ccccc3C(F)(F)F)C(=O)Nc3ccc(Cl)cc32)cc1` (stereo not drawn) [Compound 2, (Z)-1-(4-(7-chloro-2-oxo-3-(2-(trifluoromethyl)benzyl)-2,3-dihydro-1H-benzo[e][1,4]diazepin-5-yl)phenyl)-3-isopropylurea]: the concentration for half-maximal inhibition (IC50) on F1F0-ATPase (read-out: ATPase IC50) is 5 to 10 µM. Further, in the test with Ramos cells (cytotoxicity in Ramos cells), the EC50 was under 5 µM.

As to `CC(C)NC(=O)Nc1ccc(C2=NC(Cc3ccccc3F)C(=O)Nc3ccc(Cl)cc32)cc1` (stereo not drawn) [Compound 3, (Z)-1-(4-(7-chloro-3-(2-fluorobenzyl)-2-oxo-2,3-dihydro-1H-benzo[e][1,4]diazepin-5-yl)phenyl)-3-isopropylurea], the 50% inhibitory concentration (IC50) at F1F0-ATPase (read-out: ATPase IC50) fell in the range of 5 to 10 µM. For the same compound, in the test with Ramos cells (cytotoxicity in Ramos cells), the concentration for a half-maximal effect (EC50) is 5 to 10 µM.

On to `CC(C)NC(=O)Nc1ccc(C2=NC(Cc3ccccc3Cl)C(=O)Nc3ccc(Cl)cc32)cc1` (stereo not drawn) [Compound 4, (Z)-1-(4-(7-chloro-3-(2-chlorobenzyl)-2-oxo-2,3-dihydro-1H-benzo[e][1,4]diazepin-5-yl)phenyl)-3-isopropylurea], for which, at F1F0-ATPase (read-out: ATPase IC50), the half-inhibitory concentration (IC50) was in the range of 5 to 10 µM. Also, the concentration giving a half-maximal response (EC50) in the test with Ramos cells (cytotoxicity in Ramos cells) is under 5 µM.

On F1F0-ATPase, `CNC(=O)Nc1ccc(C2=NC(Cc3ccccc3Cl)C(=O)Nc3ccc(Cl)cc32)cc1` (stereo not drawn) [Compound 5, (Z)-1-(4-(7-chloro-3-(2-chlorobenzyl)-2-oxo-2,3-dihydro-1H-benzo[e][1,4]diazepin-5-yl)phenyl)-3-methylurea] came in with a half-inhibitory concentration (IC50) of 5 to 10 µM. Also, the EC50 in the test on Ramos cells (cytotoxicity in Ramos cells) lay within 5 to 10 µM.

On to `CN(C)CCNC(=O)Nc1ccc(C2=NC(Cc3ccccc3Cl)C(=O)Nc3ccc(Cl)cc32)cc1` (stereo not drawn) [Compound 6, (Z)-1-(4-(7-chloro-3-(2-chlorobenzyl)-2-oxo-2,3-dihydro-1H-benzo[e][1,4]diazepin-5-yl)phenyl)-3-(2-(dimethylamino)ethyl)urea], for which, at F1F0-ATPase (read-out: ATPase IC50), the IC50 is over 10 µM. For the same compound, the concentration for a half-maximal effect (EC50) with Ramos cells (cytotoxicity in Ramos cells) is under 5 µM.

For the compound `O=C(NCC(F)(F)F)Nc1ccc(C2=NC(Cc3ccccc3Cl)C(=O)Nc3ccc(Cl)cc32)cc1` (stereo not drawn) [Compound 7, (Z)-1-(4-(7-chloro-3-(2-chlorobenzyl)-2-oxo-2,3-dihydro-1H-benzo[e][1,4]diazepin-5-yl)phenyl)-3-(2,2,2-trifluoroethyl)urea], the 50% inhibitory concentration (IC50) on F1F0-ATPase (read-out: ATPase IC50) is under 5 µM. Besides, in the test on Ramos cells (cytotoxicity in Ramos cells), the 50% effective concentration (EC50) was under 5 µM. For the compound `O=C(Nc1ccc(C2=NC(Cc3ccccc3Cl)C(=O)Nc3ccc(Cl)cc32)cc1)NC1CC1` (stereo not drawn) [Compound 8, (Z)-1-(4-(7-chloro-3-(2-chlorobenzyl)-2-oxo-2,3-dihydro-1H-benzo[e][1,4]diazepin-5-yl)phenyl)-3-cyclopropylurea], on F1F0-ATPase (read-out: ATPase IC50), the IC50 is 5 to 10 µM. For the same compound, the 50% effective concentration (EC50) in the test with Ramos cells (cytotoxicity in Ramos cells) is under 5 µM. On the same counts, the results for `COCCNC(=O)Nc1ccc(C2=NC(Cc3ccccc3Cl)C(=O)Nc3ccc(Cl)cc32)cc1` (stereo not drawn) [Compound 9, (Z)-1-(4-(7-chloro-3-(2-chlorobenzyl)-2-oxo-2,3-dihydro-1H-benzo[e][1,4]diazepin-5-yl)phenyl)-3-(2-methoxyethyl)urea] are 5 to 10 µM and under 5 µM.

For `CCOCCNC(=O)Nc1ccc(C2=NC(Cc3ccccc3Cl)C(=O)Nc3ccc(Cl)cc32)cc1` (stereo not drawn) [Compound 10, (Z)-1-(4-(7-chloro-3-(2-chlorobenzyl)-2-oxo-2,3-dihydro-1H-benzo[e][1,4]diazepin-5-yl)phenyl)-3-(2-ethoxyethyl)urea], the IC50 on F1F0-ATPase (read-out: ATPase IC50) is 5 to 10 µM. Besides, in the test with Ramos cells (cytotoxicity in Ramos cells), the 50% effective concentration (EC50) is under 5 µM.

For the compound `CN1C(=O)C(Cc2ccccc2Br)N=C(c2ccc3[nH]c(=O)[nH]c3c2)c2cc(Cl)ccc21` (stereo not drawn) [Compound 35, (Z)-3-(2-bromobenzyl)-7-chloro-1-methyl-5-(2-oxo-2,3-dihydro-1H-benzo[d]imidazol-5-yl)-1H-benzo[e][1,4]diazepin-2(3H)-one], the half-maximal effective concentration (EC50) in the test on Ramos cells (Ramos) fell in the range of 5 to 10 µM.

The values above are taken from patent US8242109B2, “Compositions and methods relating to novel compounds and targets thereof” (priority 2007, dated 2012).
